Measurements: article PMC9306587 (European Journal of Immunology, 2022)

Columns and labels:
[1] = molecular target: T1, HLA-ES147C (Homo sapiens, UniProt P13747, S168C); type: binding
T1 construct: made in house

[2] = molecular target: T2, HLA-E*01:03 (Homo sapiens, UniProt P13747); assay: pHLA-E complex stability by SPR (ILT2 binding over time); details: for t1/2: Table S2, SPR BIAcore T200, biotinylated pHLA-E monomers on streptavidin CM5 chip, 1 μM soluble ILT2 at regular intervals over 5 h, 25°C
T2 construct: made in house
Method: HLA‐E heavy chain (without transmembrane domain and with or without a C‐terminal biotinylation tag, AviTagsequence) and β2m were expressed and refolded with the peptide of interest and subsequently purified, as previously described. To biotinylate complexes prior to size exclusion chromatography, complexes were AviTag treated with biotin‐protein ligase (BirA) according to the manufacturer's instructions (Avidity BirA‐500 kit).
The stability of all pHLA‐E complexes was assessed by SPR using a BIAcore T200 instrument. Purified biotinylated pHLA‐E monomers (HLA‐E*01:03 was used throughout) were immobilized onto a streptavidin‐coupled CM5 sensor chip. A total of 1 μM of soluble ILT2 was flowed over the chip at 10 μL/min for 60 s. ILT2 binding to pHLA‐E complexes was measured at regular intervals over 5 h and responses were normalized by subtracting the bulk buffer response of a control flow cell containing no pHLA. Binding t 1/2 was calculated by plotting % activity against time using the Biacore T200 evaluation software version 3.0 and GraphPad Prism version 8.3.0.

[3] = molecular target: T2, HLA-E*01:03; assay: pHLA Thermofluor (thermal shift) assay; type: binding; details: Table S2; SYPRO Orange thermal shift, pHLA 0.25 mg/mL in PBS, 10 to 95°C at 1°C/min, triplicate; two independent experiments
Method: Thermal shift assay experiments were performed using a RT‐PCR instrument (Quantstudio 6, Applied Biosystems). SYPRO Orange protein gel stain (5000× stock solution) was diluted in PBS to yield a 75× working solution. In a 96‐well plate, 23 μL of pHLA at 0.25 mg/mL was added to 2 μL of SYPRO Orange working solution to a final volume of 25 μL, with each pHLA prepared in triplicate. Mixtures were heated from 10 to 95°C with a temperature increment of 1°C/min. Fluorescence was detected using the FAM filter set, with excitation and emission wavelength at 495 and 518 nm, respectively. Data analysis was performed using Protein Thermal Shift Software version 1.4 (Thermofisher Scientific) to determine Tm.

VMAPRTLLL [LA13-11]
t1/2(hours) HLA-ES147C(H3C) [1]: 16.74 h | t1/2 [2]: 2.8 h | t1/2 ([2]; representative of at least two independent experiments): 2.8 h | t1/2(hours) HLA-E ([2]; Table S4, SPR with ILT2 over 5 h): 2.8 h | Average Tm [3]: 47.87 °C
